Results reported in the OligoGym collection.
HELM strings list units from the 5' end as sugar, base in round brackets, then linkage (d deoxyribose, r ribose, m 2'-O-methyl, p phosphodiester). Strings are as the collection lists them, not checked against the first reports. ss, as = sense and antisense strand; [lna] = locked nucleic acid (LNA); [hna] = hexitol nucleic acid; [s4r] = 4'-thioribose; [fl2r] = 2'-fluoro
Also: test system not given here.

Details: siRNA
“RNA1{r(U)p.m(U)p.r(A)p.m(C)p.r(A)p.r(A)p.r(A)p.r(G)p.r(G)p.m(A)p.r(U)p.r(C)p.r(U)p.r(C)p.r(C)p.r(U)p.r(C)p.r(C)p.r(C)p.r(T)p.r(T)}|RNA2{r(G)p.r(G)p.r(G)p.r(A)p.r(G)p.r(G)p.r(A)p.r(G)p.m(A)p.r(U)p.r(C)p.r(C)p.r(U)p.r(U)p.m(U)p.r(G)p.m(U)p.r(A)p.r(A)p.r(T)p.r(T)}$$$RNA1{StrandType:ss}|RNA2{StrandType:as}$” showed a target mRNA knockdown of 78%.
“RNA1{r(G)p.r(A)p.r(C)p.r(G)p.[hna](U)p.r(A)p.r(A)p.[hna](A)p.r(C)p.r(G)p.[hna](G)p.r(C)p.r(C)p.[hna](A)p.r(C)p.r(A)p.r(A)p.r(G)p.r(U)p.[hna](U)p.d(T)}|RNA2{r(A)p.[hna](C)p.r(U)p.r(U)p.r(G)p.r(U)p.r(G)p.r(G)p.r(C)p.r(C)p.r(G)p.r(U)p.r(U)p.r(U)p.r(A)p.r(C)p.r(G)p.[hna](U)p.[hna](C)p.[hna](G)p.d(T)}$$$RNA1{StrandType:ss}|RNA2{StrandType:as}$” gave a target mRNA knockdown of 11.9%.
“RNA1{r(A)p.r(A)p.r(C)p.r(U)p.r(C)p.[fl2r](U)p.r(A)p.r(C)p.[fl2r](U)p.r(G)p.[fl2r](U)p.r(G)p.r(G)p.r(A)p.r(G)p.r(U)p.r(C)p.r(G)p.r(G)p.r(T)p.r(T)}|RNA2{r(C)p.r(C)p.r(G)p.r(A)p.r(C)p.r(U)p.r(C)p.[fl2r](C)p.r(A)p.[fl2r](C)p.r(A)p.r(G)p.[fl2r](U)p.r(A)p.r(G)p.r(A)p.r(G)p.r(U)p.r(U)p.r(T)p.r(T)}$$$RNA1{StrandType:ss}|RNA2{StrandType:as}$” showed a target mRNA knockdown of 65%.
“RNA1{r(A)p.[fl2r](C)p.r(A)p.[fl2r](U)p.r(A)p.[fl2r](G)p.r(A)p.r(G)p.r(G)p.r(A)p.r(A)p.r(G)p.r(A)p.r(C)p.r(G)p.r(C)p.r(G)p.r(G)p.r(A)p.r(T)p.r(T)}|RNA2{r(U)p.r(C)p.r(C)p.r(G)p.r(C)p.r(G)p.r(U)p.r(C)p.r(U)p.r(U)p.r(C)p.r(C)p.r(U)p.r(C)p.[fl2r](U)p.r(A)p.[fl2r](U)p.r(G)p.r(U)p.r(T)p.r(T)}$$$RNA1{StrandType:ss}|RNA2{StrandType:as}$” showed a target mRNA knockdown of 86%.
For “RNA1{r(G)p.r(A)p.r(C)p.r(G)p.r(U)p.r(A)p.r(A)p.r(A)p.r(C)p.r(G)p.r(G)p.r(C)p.r(C)p.r(A)p.r(C)p.r(A)p.r(A)p.r(G)p.[hna](U)p.[hna](U)p.r(C)}|RNA2{r(A)p.r(C)p.r(U)p.r(U)p.r(G)p.r(U)p.r(G)p.r(G)p.r(C)p.r(C)p.r(G)p.r(U)p.r(U)p.r(U)p.r(A)p.r(C)p.r(G)p.r(U)p.[lna](C)p.[lna](G)p.r(C)}$$$RNA1{StrandType:ss}|RNA2{StrandType:as}$”, the target mRNA knockdown was 83.8%.
In the case of “RNA1{r(G)p.r(A)p.r(A)p.m(U)p.r(A)p.r(A)p.r(C)p.r(C)p.r(U)p.r(G)p.r(A)p.r(A)p.r(C)p.r(G)p.r(U)p.r(C)p.r(A)p.r(C)p.r(C)p.r(T)p.r(T)}|RNA2{r(G)p.r(G)p.r(U)p.r(G)p.r(A)p.r(C)p.r(G)p.r(U)p.r(U)p.r(C)p.r(A)p.r(G)p.r(G)p.r(U)p.m(U)p.r(A)p.r(U)p.r(U)p.r(C)p.r(T)p.r(T)}$$$RNA1{StrandType:ss}|RNA2{StrandType:as}$”, the target mRNA knockdown is reported as 55%.
In the case of “RNA1{r(C)p.r(U)p.r(C)p.m(C)p.r(C)p.m(C)p.r(A)p.r(G)p.r(U)p.m(C)p.r(U)p.r(C)p.r(U)p.r(C)p.r(U)p.m(U)p.r(A)p.r(A)p.r(A)p.r(T)p.r(T)}|RNA2{r(U)p.r(U)p.m(U)p.r(A)p.r(A)p.r(G)p.r(A)p.r(G)p.r(A)p.r(G)p.r(A)p.r(C)p.m(U)p.r(G)p.r(G)p.r(G)p.r(G)p.r(A)p.r(G)p.r(T)p.r(T)}$$$RNA1{StrandType:ss}|RNA2{StrandType:as}$”, the target mRNA knockdown is reported as 68%.
With “RNA1{[fl2r](U)p.r(C)p.[fl2r](C)p.r(G)p.[fl2r](G)p.r(C)p.[fl2r](U)p.r(A)p.[fl2r](A)p.r(C)p.[fl2r](U)p.r(C)p.[fl2r](U)p.r(G)p.[fl2r](A)p.r(G)p.[fl2r](G)p.r(A)p.[fl2r](C)p.r(T)p.r(T)}|RNA2{r(G)p.r(U)p.r(C)p.r(C)p.r(U)p.r(C)p.r(A)p.r(G)p.r(A)p.r(G)p.r(U)p.r(U)p.r(A)p.r(G)p.r(C)p.r(C)p.r(G)p.r(G)p.r(A)p.r(T)p.r(T)}$$$RNA1{StrandType:ss}|RNA2{StrandType:as}$” the target mRNA knockdown was 41%.
“RNA1{r(A)p.r(A)p.r(A)p.r(C)p.r(G)p.r(U)p.r(G)p.r(A)p.r(C)p.r(U)p.r(U)p.m(U)p.r(G)p.r(G)p.r(U)p.r(U)p.r(C)p.r(C)p.r(U)p.r(T)p.r(T)}|RNA2{r(A)p.r(G)p.r(G)p.r(A)p.r(A)p.r(C)p.r(C)p.r(A)p.r(A)p.r(A)p.r(G)p.r(U)p.m(C)p.r(A)p.r(C)p.r(G)p.r(U)p.r(U)p.r(U)p.r(T)p.r(T)}$$$RNA1{StrandType:ss}|RNA2{StrandType:as}$” gave a target mRNA knockdown of 83%.
With “RNA1{r(G)p.r(G)p.r(G)p.r(A)p.r(A)p.r(A)p.r(C)p.r(U)p.r(G)p.r(A)p.r(A)p.r(A)p.r(G)p.r(G)p.r(C)p.r(U)p.r(A)p.r(U)p.r(G)p.r(T)p.r(T)}|RNA2{[fl2r](C)p.r(A)p.[fl2r](U)p.r(A)p.r(G)p.[fl2r](C)p.[fl2r](C)p.[fl2r](U)p.[fl2r](U)p.[fl2r](U)p.[fl2r](C)p.r(A)p.r(G)p.[fl2r](U)p.[fl2r](U)p.[fl2r](U)p.[fl2r](C)p.[fl2r](C)p.[fl2r](C)p.r(T)p.r(T)}$$$RNA1{StrandType:ss}|RNA2{StrandType:as}$” the target mRNA knockdown was 6%.
With “RNA1{r(A)p.r(G)p.r(A)p.r(A)p.r(A)p.r(C)p.r(G)p.m(C)p.r(A)p.r(G)p.m(U)p.m(A)p.r(A)p.r(U)p.r(C)p.r(C)p.r(G)p.r(G)p.r(A)p.r(T)p.r(T)}|RNA2{r(U)p.r(C)p.r(C)p.r(G)p.r(G)p.r(A)p.r(U)p.m(U)p.r(A)p.r(C)p.m(U)p.r(G)p.r(C)p.r(G)p.r(U)p.r(U)p.r(U)p.r(C)p.r(U)p.r(T)p.r(T)}$$$RNA1{StrandType:ss}|RNA2{StrandType:as}$” the target mRNA knockdown was 78%.
For “RNA1{r(C)p.r(U)p.r(U)p.r(A)p.r(C)p.r(G)p.r(C)p.r(U)p.r(G)p.r(A)p.r(G)p.r(U)p.r(A)p.r(C)p.r(U)p.r(U)p.r(C)p.r(G)p.r(A)p.r(T)p.r(T)}|RNA2{r(T)p.r(C)p.r(G)p.r(A)p.r(A)p.r(G)p.r(U)p.r(A)p.r(C)p.r(U)p.r(C)p.r(A)p.r(G)p.r(C)p.r(G)p.r(U)p.r(A)p.[lna](A)p.r(G)p.[lna](T)p.[lna](T)}$$$RNA1{StrandType:ss}|RNA2{StrandType:as}$”, the target mRNA knockdown was 95%.
Work on “RNA1{r(C)p.r(G)p.r(U)p.r(A)p.r(C)p.r(G)p.r(C)p.r(G)p.r(G)p.r(A)p.r(A)p.r(U)p.r(A)p.r(C)p.r(U)p.[s4r](U)p.[s4r](C)p.[s4r](G)p.[s4r](A)p.r(T)p.r(T)}|RNA2{r(U)p.r(C)p.r(G)p.r(A)p.r(A)p.r(G)p.r(U)p.r(A)p.r(U)p.r(U)p.r(C)p.r(C)p.r(G)p.r(C)p.r(G)p.r(U)p.r(A)p.r(C)p.r(G)p.r(T)p.r(T)}$$$RNA1{StrandType:ss}|RNA2{StrandType:as}$” yielded a target mRNA knockdown of 94.3%.
With “RNA1{r(A)p.m(A)p.r(G)p.m(G)p.r(A)p.m(G)p.r(A)p.m(U)p.r(C)p.m(A)p.r(A)p.m(C)p.r(A)p.m(U)p.r(U)p.m(U)p.r(U)p.m(C)p.r(A)p.r(T)p.r(T)}|RNA2{r(U)p.m(G)p.r(A)p.m(A)p.r(A)p.m(A)p.r(U)p.m(G)p.r(U)p.m(U)p.r(G)p.m(A)p.r(U)p.m(C)p.r(U)p.m(C)p.r(C)p.m(U)p.r(U)p.r(T)p.r(T)}$$$RNA1{StrandType:ss}|RNA2{StrandType:as}$” the target mRNA knockdown was 61%.
